For test [1], the system named is sdLDL from plasma of healthy volunteers. As to the kind of experiment: Time-dependent sdLDL oxidation, MDA formation over 4 hours (Example 13). The test is classed as biochemical, human. The conditions noted are these: each at 10 μM; 4 hours; 10 μM CuSO4. The method, then: sdLDL was isolated from the plasma of healthy volunteers by iodixanol density gradient centrifugation and adjusted to a final apolipoprotein concentration of 2 mg/mL. Sample aliquots (100 μg apolipoprotein) were incubated with EPA, DHA, or EPA+DHA (each at 10 μM) for 30 minutes at 37° C. and then treated with 10 μM CuSO4 to initiate lipid oxidation. sdLDL oxidation was measured spectrophotometrically as a function of malondialdehyde (MDA) formation at various intervals over 4 hours. Vitamin E was also tested as a positive control. Experiments were conducted in triplicate and reported as mean±SD.

The subject of test [2] is sdLDL isolated from human plasma. Description: Copper-induced sdLDL oxidation 1 hour (Example 12). The test is classed as biochemical. The settings on record: 10.0 μM; copper-induced oxidation 1 hour. On the procedure: All samples, with the exception of non-oxidized sdLDL controls, were subjected to copper-induced oxidation for 1 hour. Human umbilical vein endothelial cells (HUVECs) were incubated with the various sdLDL samples, stimulated with calcium, and monitored for nitric oxide (NO) and peroxynitrite (ONOO^−) release using nanosensor technology.

A short description of test [3]: Lipid hydroperoxide (LOOH) formation in cholesterol-enriched model membranes under autoxidation, CHOD-iodide assay (Example 3). The test is classed as biochemical. The conditions noted are these: EPA to lipids 1:30, C/P 0.6:1. On the procedure:
An experiment was conducted to test EPA in model membranes enriched with PUFAs and cholesterol at levels that reproduce disease or high CV-risk conditions (i.e., hypercholesterolemia). […] Levels of lipid hydroperoxides were also measured in cholesterol-enriched membrane prepared in the absence of EPA as a control. […] CHOD-iodide color reagent (stock) was prepared according to a procedure modified from El-Saadani et […], Goher […], Jurgens G. A spectrophotometric assay for lipid peroxides in serum lipoproteins using commercially available reagent. J. Lipid. […] Membrane samples consisting of DLPC±cholesterol were prepared as follows. Component lipids (in chloroform) were transferred to 13×100 mm test tubes and shell-dried under a steady stream of nitrogen gas while vortex mixing. The lipid was co-dried with EPA. Residual solvent was removed by drying for a minimum of 3 h under vacuum. […] Absorbances were measured against a CHOD blank at 365 nm using a Beckman DU-640 spectrophotometer. The CHOD colorimetric assay is based on the oxidation of iodide (I^-) by lipid hydroperoxides (LOOH) and proceeds according to the following reaction scheme: […]3^- The quantity of triiodide anion (I3^-) liberated in this reaction is directly proportional to the amount of lipid hydroperoxides present in the membrane sample.

Test [4] relates to unfractionated LDL isolated from human plasma. Description: Copper-induced oxidation of unfractionated LDL, TBARS (Example 6). The test is classed as biochemical. The conditions noted are these: 10.0 μM; unfractionated LDL. The method, then: All test compounds were further diluted in ethanol or aqueous buffer as needed. Venous blood was collected from healthy volunteers into vacutainer tubes containing sodium EDTA. […] Plasma and lipoprotein fractions were maintained at 4° C. and protected from excessive exposure to light. Prior to oxidation experiments, EDTA was removed from the lipoprotein fraction using PD-10 desalting columns (GE Healthcare, Piscataway N.J.). After equilibration of the column with phosphate buffered saline (PBS), 2.5 mL of the lipoprotein fraction was loaded on the column and the flow-through discarded. The lipoprotein was then eluted with 3 mL of PBS. The LDL fractions were further diluted with PBS to obtain a 100 μg/mL apoB100 concentration. […] Differences between groups were analyzed using the two-tailed, Student's t-test (for comparisons between only two groups) or ANOVA followed by Dunnett or Student-Newman-Keuls multiple comparisons post-hoc analysis (for comparisons between three or more groups).

The next test concerns human sdLDL. As to the kind of experiment: Copper-induced sdLDL oxidation, TBARS after 2 hr (Example 6). The settings on record: 10 μM CuSO4. The test is classed as biochemical. The method, then:
An experiment to study the antioxidant effect of EPA in small dense […] performed. […] Vitamin E (α-tocopherol) was purchased from Sigma-Aldrich and prepared in ethanol at 1.0 mM (ε=3.06×10^4 M^-1 cm^-1 at 294 nm) just prior to experimental use. All test compounds were further diluted in ethanol or aqueous buffer as needed. Venous blood was collected from healthy volunteers into vacutainer tubes containing sodium EDTA. Plasma was separated by centrifugation at 3000 g for 25 min at 4° C. and adjusted to a density of 1.020 g/mL with KBr. Triglyceride-rich lipoproteins (TGRL) and LDL fractions were then isolated by sequential centrifugation at 70,000 rpm at 4° C. in a Beckman LE-80 ultracentrifuge using a Beckman 50.4Ti rotor (Beckman Coulter, Inc., Fullerton, Calif.). The TGRL fraction (with a relative density of <1.020) was aspirated from the top of the centrifugate and discarded, leaving an LDL-enriched […] relative density of 1.020 to 1.063). […] The sdLDL subfraction was retained for additional experimentation. Plasma and lipoprotein fractions were maintained at 4° C. and protected from excessive exposure to light. Prior to oxidation experiments, EDTA was removed from the lipoprotein fraction using PD-10 desalting columns (GE Healthcare, Piscataway N.J.). After equilibration of the column with phosphate buffered saline (PBS), 2.5 mL of the lipoprotein fraction was loaded on the column and the flow-through discarded. The lipoprotein was then eluted with 3 mL of PBS. The LDL fractions were further diluted with PBS to obtain a 100 μg/mL apoB100 concentration. […] Data are presented as mean±S.D. for (N) separate samples or treatment groups. Differences between groups were analyzed using the two-tailed, Student's t-test (for comparisons between only two groups) or ANOVA followed by Dunnett or Student-Newman-Keuls multiple comparisons post-hoc analysis (for comparisons between three or more groups).

A value given as a limit tells only on which side of the number the result lay.

On to `CC/C=C\C/C=C\C/C=C\C/C=C\C/C=C\CCCC(=O)O` [EPA, cis-5,8,11,14,17-eicosapentaenoic acid], for which, in test [1], the MDA levels was 0.8 ± 0.03 µM and the “reduction in sdLDL oxidation (MDA levels)” value amounted to 92%. Further, the “reduced sdLDL oxidation compared to vehicle treatment alone” value in test [2] is recorded as more than 90%. Moreover, in test [3] (after autoxidation 37° C. 72 hours), the LOOH levels turned out to be 728 ± 30 µM. The “reduced LOOH levels compared to untreated controls” value in test [3] (autoxidation 37° C. 72 hours) is “greater than 90%”. In addition, in test [4], the “reduced TBARS levels” value stood at 17%. Also, the “reduced TBARS levels compared to vehicle-treated controls” value with human sdLDL (1.0 μM) stood at 13%. Also, the “reduced TBARS levels compared to vehicle-treated controls” value in the test on human sdLDL (10.0 μM) is given as 57%.

(Values after patent publication US20200237700A1, “METHODS OF REDUCING OR PREVENTING OXIDATION OF SMALL DENSE LDL OR MEMBRANE POLYUNSATURATED FATTY ACIDS” (Amarin Pharmaceuticals Ireland Limited, priority 2015, published 2020).)
